Key:
Ras-transformed cells = Ras-transformed cells compared to WT cells; cited from earlier work
VRAC [1] = biological target: T1, VRAC (Homo sapiens, UniProt Q8IWT6); assay: FLIPR YFP-quenching assay: hypotonicity-induced iodide influx into HEK cells expressing YFP(H148Q/I152L); format: cell-based; design: Swelling-induced iodide influx into HEK cells, which display typical ICl(swell) currents; endogenous in cells; host or cells: HEK293: a clone inducibly expressing YFP(H148Q/I152L) in A1, and HEK cells in A2; details: hypotonic saline with 50 mM iodide, inhibitor included in the iodide-containing solution
T1 sequence (Q8IWT6 1-810): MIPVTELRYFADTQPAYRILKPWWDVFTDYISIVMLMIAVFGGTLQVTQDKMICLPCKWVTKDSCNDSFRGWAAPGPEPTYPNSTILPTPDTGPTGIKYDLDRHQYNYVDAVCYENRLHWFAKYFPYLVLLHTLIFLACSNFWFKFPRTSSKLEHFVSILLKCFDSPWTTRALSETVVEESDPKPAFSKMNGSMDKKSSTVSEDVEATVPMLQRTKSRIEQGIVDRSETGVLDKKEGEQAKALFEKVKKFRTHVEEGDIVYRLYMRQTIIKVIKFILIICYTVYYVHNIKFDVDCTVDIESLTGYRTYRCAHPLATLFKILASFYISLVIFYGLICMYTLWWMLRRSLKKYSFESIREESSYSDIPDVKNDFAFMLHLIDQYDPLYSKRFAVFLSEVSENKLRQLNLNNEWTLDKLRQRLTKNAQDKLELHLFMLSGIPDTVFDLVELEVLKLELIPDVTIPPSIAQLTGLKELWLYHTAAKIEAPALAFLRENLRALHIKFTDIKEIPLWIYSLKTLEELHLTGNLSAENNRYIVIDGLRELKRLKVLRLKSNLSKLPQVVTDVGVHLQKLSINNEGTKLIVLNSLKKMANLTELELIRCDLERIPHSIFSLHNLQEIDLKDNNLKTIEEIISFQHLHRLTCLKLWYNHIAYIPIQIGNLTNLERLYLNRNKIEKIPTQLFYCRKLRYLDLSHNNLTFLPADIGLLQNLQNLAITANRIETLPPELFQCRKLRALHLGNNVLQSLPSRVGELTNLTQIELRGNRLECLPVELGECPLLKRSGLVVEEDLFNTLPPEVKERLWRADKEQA
Description: To identify VRAC we opted for a genome-wide RNA interference screen that could identify non-redundant VRAC components even if the channel were a heteromer. Swelling-induced iodide influx into HEK cells, which display typical ICl(swell) currents (Nilius et al., 2001, Hernandez-Carballo et al.), was used as readout (FIG. 1A). We generated a clonal HEK cell line expressing a yellow fluorescent protein variant YFP(H148Q/I152L) whose fluorescence is efficiently quenched by iodide (Galietta et al.). The assay used the FLIPR™ fluorometric imaging plate reader system which allows parallel pipetting and continuous fluorescence measurements of all wells. The solution covering the cells was exchanged to a hypotonic or isotonic (control) saline containing 50 mM iodide and YFP fluorescence was followed over time (FIG. 1B). Compatible with a background permeation pathway for I^− the fluorescence decayed slowly in I^−-containing isotonic control solution. […]
The YFP-quenching assay was performed 72 h post-transfection. After having exchanged the cell culture medium in all wells of the plate with 10 μl of isotonic solution (in mM: 145 NaCl, 5 KCl, 1 MgCl2, 2 CaCl2, 10 glucose, 10 HEPES pH 7.4, 329 mOsm) in a Tecan Freedom EVO 200 workstation, the plates were transferred into the FLIPR™ (Molecular Devices) High Throughput Cellular Screening Device and fluorescence measurements were initiated. […]

VRAC [2] = biological target: T1, VRAC; design: host or cells: human epidermis cancer cells; details: human epidermis cancer cells; cited from earlier work

## O=C(Nc1cc(C(F)(F)F)cc(C(F)(F)F)c1)Nc1ccc(Br)cc1-c1nnn[nH]1 [NS3728]
Ras-transformed cells
  inhibition of cell migration: inhibit cell migration more strongly in Ras-transformed cells compared to WT cells

## CC1(C)[C@@H](OC(=O)CCC(=O)O)CC[C@]2(C)[C@H]3C(=O)C=C4[C@@H]5C[C@@](C)(C(=O)O)CC[C@]5(C)CC[C@@]4(C)[C@]3(C)CC[C@@H]12 [carbenoxolone]
VRAC [1]
  inhibition of hypotonicity-induced decrease in YFP fluorescence (quenching by iodide): partially inhibited

## N.N.[Cl][Pt][Cl] [cisplatin]
VRAC [2]
  effect on VRAC: activate VRAC

## CCCCC1(C2CCCC2)Cc2cc(OCCCC(=O)O)c(Cl)c(Cl)c2C1=O (stereo not shown) [DCPIB]
VRAC [1]
  inhibition of hypotonicity-induced decrease in YFP fluorescence (quenching by iodide): partially inhibited

— patent US9927423B2, “LRRC8 proteins and protein complexes and methods for identification of channel modulators” (MAX-DELBRUECK-CENTRUM FUER MOLEKULARE MEDIZIN, priority 2014, dated 2018)
